Tests used:
[1] = target: Nitric oxide synthase, inducible (Homo sapiens, UniProt P35228); assay: ChEBML_89186
Text: Concentration required to inhibit Inducible nitric oxide synthase over expressed in A549 cells

[2] = target: T1, Nitric oxide synthase, endothelial (Homo sapiens, UniProt P29474); assay: ChEBML_64984
T1 sequence (P29474 whole entry): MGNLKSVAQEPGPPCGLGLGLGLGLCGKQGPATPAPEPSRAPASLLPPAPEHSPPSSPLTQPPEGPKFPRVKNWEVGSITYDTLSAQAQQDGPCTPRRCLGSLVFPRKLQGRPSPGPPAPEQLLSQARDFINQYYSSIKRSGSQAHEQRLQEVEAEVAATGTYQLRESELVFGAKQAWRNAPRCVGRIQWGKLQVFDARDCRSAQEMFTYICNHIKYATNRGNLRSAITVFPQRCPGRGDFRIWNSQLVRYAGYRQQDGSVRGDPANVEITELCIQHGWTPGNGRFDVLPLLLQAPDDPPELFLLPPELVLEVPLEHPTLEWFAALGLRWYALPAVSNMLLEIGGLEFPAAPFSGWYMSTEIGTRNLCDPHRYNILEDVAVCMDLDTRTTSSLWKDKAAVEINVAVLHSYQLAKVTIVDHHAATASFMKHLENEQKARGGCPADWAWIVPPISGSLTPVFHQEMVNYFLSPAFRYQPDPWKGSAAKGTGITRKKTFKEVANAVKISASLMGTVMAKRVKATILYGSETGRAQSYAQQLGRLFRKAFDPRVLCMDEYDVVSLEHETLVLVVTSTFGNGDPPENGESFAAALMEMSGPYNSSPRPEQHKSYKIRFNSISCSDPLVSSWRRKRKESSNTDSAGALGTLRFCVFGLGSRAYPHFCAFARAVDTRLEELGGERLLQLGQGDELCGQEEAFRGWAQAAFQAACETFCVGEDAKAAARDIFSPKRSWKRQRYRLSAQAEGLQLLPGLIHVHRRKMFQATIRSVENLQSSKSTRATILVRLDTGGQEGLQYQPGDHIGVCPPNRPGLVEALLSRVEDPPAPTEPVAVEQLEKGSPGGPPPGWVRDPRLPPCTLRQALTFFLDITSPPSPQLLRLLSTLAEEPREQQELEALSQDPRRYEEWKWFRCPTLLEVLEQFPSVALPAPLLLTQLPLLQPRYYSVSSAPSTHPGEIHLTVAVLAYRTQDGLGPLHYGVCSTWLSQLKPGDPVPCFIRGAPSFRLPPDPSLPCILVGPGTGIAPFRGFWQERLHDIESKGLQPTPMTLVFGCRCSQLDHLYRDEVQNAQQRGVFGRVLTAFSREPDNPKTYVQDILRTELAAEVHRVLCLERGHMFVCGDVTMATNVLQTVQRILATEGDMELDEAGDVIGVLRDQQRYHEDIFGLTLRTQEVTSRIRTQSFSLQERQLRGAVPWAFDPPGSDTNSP
Text: Inhibition of human endothelial Nitric Oxide Synthase expressed in Sf-21 cells

Chain of Nitric oxide synthase, inducible (P35228 whole entry): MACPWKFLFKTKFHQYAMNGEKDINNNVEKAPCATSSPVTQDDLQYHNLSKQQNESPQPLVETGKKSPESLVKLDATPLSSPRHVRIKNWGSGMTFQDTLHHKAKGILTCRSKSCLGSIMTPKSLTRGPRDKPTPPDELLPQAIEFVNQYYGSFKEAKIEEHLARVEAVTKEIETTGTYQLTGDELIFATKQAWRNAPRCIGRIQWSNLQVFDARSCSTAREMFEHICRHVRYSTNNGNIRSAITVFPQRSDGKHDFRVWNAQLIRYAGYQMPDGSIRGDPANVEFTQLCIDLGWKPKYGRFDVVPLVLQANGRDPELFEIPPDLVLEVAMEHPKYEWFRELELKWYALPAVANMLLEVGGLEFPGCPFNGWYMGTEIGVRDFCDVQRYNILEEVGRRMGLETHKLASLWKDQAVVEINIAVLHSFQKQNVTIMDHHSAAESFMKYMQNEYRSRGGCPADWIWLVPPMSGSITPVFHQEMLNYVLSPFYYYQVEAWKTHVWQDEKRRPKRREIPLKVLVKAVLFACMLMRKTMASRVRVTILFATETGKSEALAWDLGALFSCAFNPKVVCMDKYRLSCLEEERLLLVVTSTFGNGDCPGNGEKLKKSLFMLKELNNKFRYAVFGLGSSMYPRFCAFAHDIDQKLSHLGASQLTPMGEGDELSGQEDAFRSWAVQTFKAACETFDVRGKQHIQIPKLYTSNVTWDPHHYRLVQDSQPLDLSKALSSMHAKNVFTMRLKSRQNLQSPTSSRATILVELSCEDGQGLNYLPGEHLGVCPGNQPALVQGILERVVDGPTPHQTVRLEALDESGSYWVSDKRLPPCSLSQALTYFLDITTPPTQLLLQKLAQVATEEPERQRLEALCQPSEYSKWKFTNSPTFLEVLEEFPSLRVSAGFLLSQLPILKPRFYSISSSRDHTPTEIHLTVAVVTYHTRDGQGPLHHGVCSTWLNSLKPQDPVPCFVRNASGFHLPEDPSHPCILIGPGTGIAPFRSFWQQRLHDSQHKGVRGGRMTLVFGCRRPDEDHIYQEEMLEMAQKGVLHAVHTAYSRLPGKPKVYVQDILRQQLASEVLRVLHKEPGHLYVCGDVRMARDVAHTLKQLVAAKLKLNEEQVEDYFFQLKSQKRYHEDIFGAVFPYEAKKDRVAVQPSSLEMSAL

IC50 [1]: 700 nM | IC50 [2]: 440 nM
Structure (SMILES): CC1=CC(N)=NCC1
